Where a SMILES comes first, the peptide text is derived from it.
Assays:
male Wistar/AF EOPS rats = test: Behavioral despair test (forced swimming); format: in vivo, rat
Procedure: Forty male Wistar/AF EOPS rats (Iffa-Credo Breeding Centre, 69-St-Germain sur l'Arbresle, France), weighing 300 to 320 g, were used. On arrival, the rats were labelled and distributed randomly in pairs into type F polycarbonate cages (48×27×20 cm, U.A.R., 91-Epinay-Sur-Orge, France). The animals were stabled in an air-conditioned animal house, at a temperature of 22-24° C. The rats were given food (M25 croquettes, Ets Pietrement, 77-Provins, France) and drink ad libitum and were subjected to a 12-hour light-darkness cycle.
After one week of familiarization with the laboratory conditions, the rats were weighed and distributed randomly into 3 treatment groups (n=12). The rats of the different groups will all be handled in the same way and under the same conditions.
The behavioral despair test takes place over two sessions: • a 15-minute test session; • a 5-minute retest session, performed 24 hours later.
During the test session, the rat was subjected to forced swimming in a Plexiglas cylinder (20 cm in diameter and 50 cm in height, containing 25 cm of water at 25° C.) and its behavior was recorded over 15 minutes. At the end of the test, the rat was removed from the water, dried gently, treated and then returned to its dwelling cage.
During the retest, 24 hours later, the rat was again placed in the water and its behavior was recorded over 5 minutes.
The recorded variables are the period of immobility during the first 5 minutes of both the test and the retest.
The peptide FG-005 (SMR1-QHNPR) (SEQ ID NO: 1) was suspended at a rate of 500 μg per 5 ml of 0.01N acetic acid, and then diluted with PBS to be administered at doses of 50 and 100 μg/kg via the i.v. route into the dorsal caudal vein of the rat, immediately after the test and 300 and 5 minutes before the retest the following day.
A bilateral probability paired t test was used to compare the two periods of immobility of the test with those of the retest in each of the groups. The results are expressed as an average ±standard error of mean (SEM)(FIG. 4). The statistical and graphical processing was performed using Statview5 and DeltaGraph® Pro 3.5 software.

NEP = target: T1, NEP (Rattus norvegicus, UniProt P07861); test: Met-enkephalin degradation by rat spinal cord slices, RIA assay; format: biochemical; conditions: 10 μM; fresh spinal cord slices; 20 min at 25° C.; 10 μM Met-enkephalin
T1 construct: incubations of membrane and fresh tissue slice preparations from nervous tissues; from tissue; host or cells: rat spinal cord (dorsal zone), fresh slices or 100 000 x g membrane fraction
T1 sequence (P07861 1-750): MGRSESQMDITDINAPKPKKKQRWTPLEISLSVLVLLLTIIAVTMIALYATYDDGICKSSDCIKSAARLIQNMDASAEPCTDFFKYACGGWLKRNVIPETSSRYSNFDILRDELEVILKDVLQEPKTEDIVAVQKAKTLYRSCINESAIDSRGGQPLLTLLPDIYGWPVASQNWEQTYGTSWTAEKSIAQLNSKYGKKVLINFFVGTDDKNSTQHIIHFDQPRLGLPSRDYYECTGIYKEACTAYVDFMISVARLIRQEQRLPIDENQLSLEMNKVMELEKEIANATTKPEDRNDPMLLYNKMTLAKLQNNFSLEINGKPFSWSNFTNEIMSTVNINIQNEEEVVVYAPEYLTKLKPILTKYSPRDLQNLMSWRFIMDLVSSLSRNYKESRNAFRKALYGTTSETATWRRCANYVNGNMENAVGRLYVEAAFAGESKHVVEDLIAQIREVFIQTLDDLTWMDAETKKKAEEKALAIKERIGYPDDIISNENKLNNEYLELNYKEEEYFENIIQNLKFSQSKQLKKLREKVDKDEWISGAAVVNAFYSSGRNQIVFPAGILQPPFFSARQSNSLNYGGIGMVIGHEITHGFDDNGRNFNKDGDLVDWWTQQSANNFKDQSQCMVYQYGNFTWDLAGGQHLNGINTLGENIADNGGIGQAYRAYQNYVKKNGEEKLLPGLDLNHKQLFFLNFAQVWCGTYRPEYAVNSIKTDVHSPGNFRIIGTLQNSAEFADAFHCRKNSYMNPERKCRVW
Procedure: For the experiments of analysis of the NEP peptidase activity, an ex vivo model using incubations of membrane and fresh tissue slice preparations from nervous tissues that are known to be appropriate for exploring NEP peptidase activity: i.e. the dorsal zone of rat spinal cord, was first developed. […] (NEN, 12.5-25 nM) were used.
The objective was to measure the NEP-specific endoproteolysis of these substrates.

Compound: N=C(N)NCCC[C@H](NC(=O)[C@@H]1CCCN1C(=O)[C@H](CC(N)=O)NC(=O)[C@H](Cc1c[nH]cn1)NC(=O)[C@@H](N)CCC(N)=O)C(=O)O [SMR1-QHNPR, QHNPR] (H-QHNPR-OH; N-terminus and C-terminus assumed)
- overall effect in the behavioral despair test (male Wistar/AF EOPS rats; FG-005 50 and 100 μg/kg i.v., 8-OH-DPAT as reference substance): antidepressant effect
- change of period of immobility, retest compared with test (male Wistar/AF EOPS rats; dose of 50 μg/kg): increase their period of immobility during the retest
- change of period of immobility, retest compared with test (male Wistar/AF EOPS rats; doses of 50 and 100 μg/kg, i.v., immediately after the test and 300 and 5 minutes before the retest): do not increase their periods of immobility during the retest
- protection of Met-enkephalin from degradation (RIA) (NEP): 96%

— patent publication US7423020B2, “Treatment of mood disorders by administration of SMR1” (Institut Pasteur, priority 2001, dated 2008)
